Values of other authors as cited in patent US20220018045A1, “ELECTROSPUN COAXIAL POLYMER FIBERS FOR CONTROLLED INSECT REPELLENT RELEASE” (The Government of the United States of America, as …, priority 2020, published 2022).

Details: ambient conditions

CCC(C)OC(=O)N1CCCCC1CCO (stereo not shown) [picaridin, 1-(1-methylpropoxycarbonyl)-2-(2-hydroxyethyl)piperidine]
vapor pressure: ~3.3×10^−2 Pa
